Data from paper PMC8279406 (Journal of Medicinal Chemistry, 2021).

What was measured:
[1] = system: T1, integrin β6; experiment: Integrin internalization assay, surface integrin β6 by flow cytometry; type: cell-based, human; details: J cells with nectin1, αvβ6 and αvβ8, 700 μM, 1 h at 37 °C
T1 construct: expressed in transfected cells; host or cells: J cells (derivatives of BHK-TK2 hamster cells)
From the text: (§1) Therefore, another mechanism might be responsible for the activity of 6 on J cells expressing αvβ8 integrin alone as well as the higher activity of 6 than that of 1 in cells that express both αvβ6 and αvβ8.[38] Thus, we hypothesized that 6 can prevent HSV-1 entry into J cells expressing nectin1 and the αvβ8 integrin alone by inducing internalization of the integrin itself. To validate our hypothesis, J cells were transfected with nectin1 and the two integrins αvβ6 and αvβ8 in the above-described manner. Then, 48 h after transfection, the cells were incubated for 60 min at 37 °C with 1 or 6. The surface expression of integrin β6 and β8, in the presence or the absence of peptides, was then evaluated by flow cytometry using FAB4155A (mAbβ6) and FAB4775A (mAbβ8) monoclonal antibodies that recognize other integrin regions than the RGD-binding domain.
(§2) Figure 5 Integrin internalization assay. J cells were transfected with a low amount (75 ng of DNA/24 well) of nectin1 plus αvβ6 integrin (300 ng of DNA/24 well) and αvβ8 integrin (300 ng of DNA/24 well). Then, 48 h after transfection, the cells were exposed to 700 μM peptides for 1 h at 37 °C. […] Integrin and nectin1 surface expression levels were quantified as flow cytometry expression of the APC mean fluorescence intensity (MFI) of gated cells. […]

[2] = molecular target: T2, human α5β1 integrin (Homo sapiens, UniProt P05556+P08648); experiment: Fibronectin-α5β1 competitive solid-phase ELISA binding assay; details: immobilized fibronectin, soluble integrin
T2 construct: purchased R&D Systems (Biotechne brand) 3230-A5
Procedure: (§3) The affinity and selectivity of the integrin peptide ligands were ascertained according to a modified method previously reported by some of us.[33],[47] The binding was determined in a competitive solid-phase binding assay using extracellular matrix proteins, soluble integrins, and pertinent integrin-specific antibodies in an enzyme-linked immunosorbent assay (ELISA).
The experimental procedure was as described for the αvβ6 assay, except for the following modifications. […] Visualization and analysis were performed as described above.

[3] = system: T3, integrin β8; experiment: Integrin internalization assay, surface integrin β8 by flow cytometry; type: cell-based, human; details: J cells with nectin1, αvβ6 and αvβ8, 700 μM, 1 h at 37 °C
T3 construct: expressed in transfected cells; host or cells: J cells (derivatives of BHK-TK2 hamster cells)
From the text: as §1, §2

[4] = molecular target: T4, human αvβ3-integrin (Homo sapiens, UniProt P05106+P06756); experiment: Vitronectin-αvβ3 competitive solid-phase ELISA binding assay
T4 construct: purchased R&D Systems (Biotechne brand) 3050-AV
Procedure: as §3
The experimental procedure was as described for the αvβ6 assay, except for the following modifications. The plates were coated with 100 μL/well of 1.0 μg/mL vitronectin in carbonate buffer, washed, and blocked as described above. […] As a primary antibody, 100 μL/well of 2.0 μg/mL primary antibody (mouse antihuman CD51/61) was used. The secondary antibody used was the same as that used for the integrin αvβ6 assay. Visualization and analysis were performed as described above.

[5] = molecular target: T5, human αvβ6 integrin (Homo sapiens, UniProt P06756+P18564); experiment: LAP(TGF-β1)-αvβ6 competitive solid-phase ELISA binding assay; details: immobilized LAP, soluble integrin
T5 construct: using immobilized ECM protein and soluble integrin; purchased R&D Systems (Biotechne brand) 3817-AV
Procedure: as §3
A flat-bottom 96-well ELISA plate was coated overnight at 4 °C with 100 μL/well of 0.4 μg/mL LAP previously diluted in carbonate buffer (15 mM Na2CO3, 35 mM NaHCO3, pH 9.6). Afterward, each well was then washed three times with 200 μL of PBS-T buffer (137 mM NaCl, 2.7 mM KCl, 10 mM Na2HPO4, 2 mM KH2PO4, 0.01% Tween 20, pH 7.4) and blocked for 1 h at room temperature with 150 μL/well TSB buffer (20 mM Tris–HCl, 150 mM NaCl, 1 mM CaCl2, 1 mM MgCl2, 1 mM MnCl2, pH 7.5, 1% BSA). Then, each well was washed three times with 200 μL of PBS-T.
Equal volumes (50 μL) of the internal standard (or test compounds) were mixed with 0.5 μg/mL human integrin αvβ6 (50 μL) giving a final dilution series in TSB buffer of 0.00064–10 μM for the inhibitors and 0.25 μg/mL for integrin αvβ6. These solutions (100 μL/well) were added to the flat-bottom ELISA plate and incubated for 1 h at room temperature. The solutions were discarded from the wells, and the plate was washed three times with PBS-T buffer (3 × 200 μL). […] The solutions were discarded from the wells, and the plate was washed three times with PBS-T (3 × 200 μL). The binding assay was developed by adding 50 μL/well of the 3,3′,5,5′-tetramethylbenzidine (TMB) liquid substrate system and incubating for 1 min at room temperature. The reaction was stopped by adding 50 μL/well of 3 M H2SO4. The peroxidase product formation was detected by measuring the absorbance at […] using a plate reader (Tecan SpectraFLUOR plus, Männedorf, Switzerland). Each compound concentration was tested in duplicate, and the resulting inhibition curves were analyzed using OriginPro 7.5G software; the inflection point describes the IC50 value. Each plate contained a linear peptide ([…]) as the internal standard.[63]

SMILES | membrane expression of integrin β6 (in words) [1] | IC50 [2] | integrin β8 surface level (in words) [3] | binding affinity for αvβ3 (in words) [4] | IC50 ([4]; competitive ELISA, immobilized vitronectin, soluble integrin) | IC50 [5]
N=C(N)NCCC[C@@H]1NC(=O)CC[C@@H](C(N)=O)NC(=O)[C@H](C2CCCCC2)NC(=O)[C@H](CC(=O)O)NC(=O)CNC1=O [compound 1, [Arg-Gly-Asp-Chg-Glu]-CONH2] | reduced |  |  |  |  | 
CN1C(=O)[C@H](C2CCCCC2)NC(=O)[C@H](CC(=O)O)NC(=O)CNC(=O)[C@H](CCCNC(=N)N)NC(=O)CC[C@H]1C(N)=O [compound 6, [Arg-Gly-Asp-Chg-(NMe)Glu]-CONH2] | reduced | 112 ± 26 nM | reduced | no significant binding affinity | 1200 ± 121 nM | 1.6 ± 0.1 nM
